Data reported in patent US12528837B2, “Aryl substituted polymyxin derivatives” (priority 2018, dated 2026).
In brackets after ≈: the same amount, converted by molar mass. Like-named read-outs stand apart in the source and are kept apart here. Where a SMILES comes first, the peptide text is derived from it. Bridges are numbered along the chain shown (N, C = ends). [ ]: non-standard residue; d: D form. The star is where a group is joined. X2 = NC[C@@H](CC(=O)*)c1cccc(-c2ccccc2)c1; X9 = CC(C)c1cccc([C@H](CN)CC(=O)*)c1; X16 = NC[C@H](CC(=O)*)Cc1cccc(Cl)c1; X8 = NC[C@@H](CC(=O)*)Cc1cccc(Cl)c1; Dab = NCC[C@H](N)C(=O)O; Abu = CC[C@H](N)C(=O)O; Dap = NC[C@H](N)C(=O)O

Assays:
E. coli CA58 = type: cell-based
Protocol: (§1) The inoculum was prepared by making a direct suspension of isolated colonies (selected from an 18-24 hour Mueller-Hinton agar plate) adjusted to the 0.5 McFarland standard. […] The assays were performed in duplicate. […] Several of the compounds were subjected to multiple tests, and where this is the case, the MIC presented is the median value obtained. The MIC values are quoted in μg/mL.

K. pneumoniae CA64 = type: cell-based
Protocol: as §1

P. aeruginosa CCUG 59347 = type: cell-based
Protocol: as §1

A. baumannii NCTC 13424 = type: cell-based
Protocol: (§2) The inoculum was prepared by making a direct suspension of isolated colonies (selected from an 18-24 hour Mueller-Hinton agar plate) adjusted to the 0.5 McFarland standard. […] The assays were performed in duplicate. […] The MIC values are quoted in μg/mL.

[1] = system: A. baumannii ATCC BAA-747; type: cell-based
Protocol: as §2

P. aeruginosa ATCC 27853 = type: cell-based
Protocol: as §2

E. coli ATCC 25922 = type: cell-based
Protocol: as §2

K. pneumoniae ATCC 13822 = type: cell-based
Protocol: as §2

[2] = Kidney drug level after subcutaneous dose in mouse; type: in vivo; details: mouse, in vivo, sc, 17.2 mg/kg
Protocol: Four hours after dosing the animals were euthanised and kidneys removed, trimmed of fat and connective tissue, weighed and immediately snap-frozen. After thawing at room temperature, pairs of kidneys from each animal were placed in 2 mL conical tubes containing pre-weighed ceria-stabilised zirconium oxide beads. […] After 10 min. centrifugation at 13,000 rpm and 6° C., 200 μl of the supernatants were transferred into glass inserts and analysed by LC-MS-MS.

[3] = Renal toxicity of Example 24 vs PMB after four doses in mouse; type: in vivo, mouse; details: mouse, in vivo, sc
Protocol: Immediately after the fourth dose mice were transferred to metabolic cages and urine collected for 24 h. for determination of urinary biomarkers. After urine collection mice were sacrificed for renal histopathology.
The urine biomarkers were normalized to urinary creatinine.

HK-2 cells = assay: In vitro renal cell toxicity assay (HK-2); type: cell-based
Protocol: The in vitro renal cell toxicity assay was performed according to the following protocol. […] Cells were seeded at 7,500 cells per well in 96-well plates and allowed to adhere overnight. […] Water and DMSO levels were kept constant at 5% and 0.5% respectively. The test compounds were incubated with cells for 24 h at 37° C. 5% CO2 in a humidified atmosphere. […] Media only background values were subtracted before the data was analysed using GraphPad Prism. Individual values were normalised to the vehicle control wells for each compound. Compound concentration values were plotted as log values to enable a dose-response curve to be fitted. The bottom of the curve was constrained to zero and IC50 values were determined. IC50 values are expressed relative to that for PMB in the same experiment. Where multiple determinations have been made, median values are presented.

[4] = cation-adjusted Mueller-Hinton Broth, 18-20 h, 35° C.

CC(C)C[C@@H]1NC(=O)[C@@H](CC(C)C)NC(=O)[C@H](CCN)NC(=O)[C@@H](NC(=O)[C@H](CN)NC(=O)[C@@H](NC(=O)C[C@@H](CN)Cc2cccc(Cl)c2)[C@@H](C)O)CCNC(=O)[C@H]([C@@H](C)O)NC(=O)[C@H](CCN)NC(=O)[C@H](CCN)NC1=O [Example 13, (S)-4-amino-3-(3- chlorobenzyl)butanoyl- Thr-Dap-Cyclo[Dab- Dab-DLeu-Leu-Dab- Dab-Thr], Isomer 2] (X16-T[Dap][Dab][Dab][dL]L[Dab][Dab]T; lactam 3-C)
MIC E. coli CA58 (E. coli CA58; CA58): 8 µg/mL (≈ 7.11 µM)
MIC K. pneumoniae CA64 (K. pneumoniae CA64; CA64): 16 µg/mL (≈ 14.2 µM)
MIC P. aeruginosa CCUG 59347 (P. aeruginosa CCUG 59347; CCUG 59347): 0.5 µg/mL (≈ 0.445 µM)
MIC A. baumannii NCTC 13424 (A. baumannii NCTC 13424; NCTC 13424): 0.5 µg/mL (≈ 0.445 µM)
MIC A. baumannii ATCC BAA-747 ([1]; ATCC BAA-747): 0.5 µg/mL (≈ 0.445 µM)
MIC P. aeruginosa ATCC 27853 (P. aeruginosa ATCC 27853; ATCC 27853): 0.25 µg/mL (≈ 0.222 µM)
MIC E. coli ATCC 25922 (E. coli ATCC 25922; ATCC 25922): 0.5 µg/mL (≈ 0.445 µM)
MIC K. pneumoniae ATCC 13822 (K. pneumoniae ATCC 13822; ATCC 13822): 0.5 µg/mL (≈ 0.445 µM)

CC(C)C[C@@H]1NC(=O)[C@@H](CC(C)C)NC(=O)[C@H](CCN)NC(=O)[C@@H](NC(=O)[C@H](CN)NC(=O)[C@@H](NC(=O)C[C@H](CN)Cc2cccc(Cl)c2)[C@@H](C)O)CCNC(=O)[C@H]([C@@H](C)O)NC(=O)[C@H](CCN)NC(=O)[C@H](CCN)NC1=O [Example 14, (R)-4-amino-3-(3- chlorobenzy!)butanoyl- Thr-Dap-Cyclo[Dab- Dab-DLeu-Leu-Dab- Dab-Thr] Isomer 1] (X8-T[Dap][Dab][Dab][dL]L[Dab][Dab]T; lactam 3-C)
MIC E. coli CA58 (E. coli CA58; CA58): 8 µg/mL (≈ 7.11 µM)
MIC K. pneumoniae CA64 (K. pneumoniae CA64; CA64): 32 µg/mL (≈ 28.4 µM)
MIC P. aeruginosa CCUG 59347 (P. aeruginosa CCUG 59347; CCUG 59347): 1 µg/mL (≈ 0.889 µM)
MIC A. baumannii NCTC 13424 (A. baumannii NCTC 13424; NCTC 13424): 0.5 µg/mL (≈ 0.445 µM)
MIC A. baumannii ATCC BAA-747 ([1]; ATCC BAA-747): 0.5 µg/mL (≈ 0.445 µM)
MIC P. aeruginosa ATCC 27853 (P. aeruginosa ATCC 27853; ATCC 27853): 0.5 µg/mL (≈ 0.445 µM)
MIC E. coli ATCC 25922 (E. coli ATCC 25922; ATCC 25922): 1 µg/mL (≈ 0.889 µM)
MIC K. pneumoniae ATCC 13822 (K. pneumoniae ATCC 13822; ATCC 13822): 0.5 µg/mL (≈ 0.445 µM)

CC(C)C[C@@H]1NC(=O)[C@@H](CC(C)C)NC(=O)[C@H](CCN)NC(=O)[C@@H](NC(=O)[C@H](CN)NC(=O)[C@@H](NC(=O)C[C@@H](CN)c2cccc(C(C)C)c2)[C@@H](C)O)CCNC(=O)[C@H]([C@@H](C)O)NC(=O)[C@H](CCN)NC(=O)[C@H](CCN)NC1=O [Example 16, (R)-4-amino-3-(3- isopropylphenyl) butanoyl-Thr-Dap- Cyclo[Dab-Dab-DLeu- Leu-Dab-Dab-Thr]] (X9-T[Dap][Dab][Dab][dL]L[Dab][Dab]T; lactam 3-C)
MIC E. coli CA58 (E. coli CA58; [4]): 16 µg/mL (≈ 14.3 µM)
MIC K. pneumoniae CA64 (K. pneumoniae CA64; [4]): 8 µg/mL (≈ 7.15 µM)
MIC P. aeruginosa CCUG 59347 (P. aeruginosa CCUG 59347; [4]): 1 µg/mL (≈ 0.894 µM)
MIC A. baumannii NCTC 13424 (A. baumannii NCTC 13424; [4]): 0.5 µg/mL (≈ 0.447 µM)
MIC A. baumannii ATCC BAA-747 [1, 4]: 0.5 µg/mL (≈ 0.447 µM)
MIC P. aeruginosa ATCC 27853 (P. aeruginosa ATCC 27853; [4]): 0.5 µg/mL (≈ 0.447 µM)
MIC E. coli ATCC 25922 (E. coli ATCC 25922; [4]): 0.5 µg/mL (≈ 0.447 µM)
MIC K. pneumoniae ATCC 13822 (K. pneumoniae ATCC 13822; [4]): 0.25 µg/mL (≈ 0.224 µM)

CC[C@@H]1NC(=O)[C@@H](CC(C)C)NC(=O)[C@H](CCN)NC(=O)[C@@H](NC(=O)[C@H](CN)NC(=O)[C@@H](NC(=O)C[C@H](CN)c2cccc(-c3ccccc3)c2)[C@@H](C)O)CCNC(=O)[C@H]([C@@H](C)O)NC(=O)[C@H](CCN)NC(=O)[C@H](CCN)NC1=O [Example 24, (S)-3-(1,1′-biphenyl- 3-yl)-4-aminobutanoyl-Thr- Dap-Cyclo[Dab-Dab- DLeu-Abu-Dab-Dab- Thr]] (X2-T[Dap][Dab][Dab][dL][Abu][Dab][Dab]T; lactam 3-C)
MIC E. coli CA58 (E. coli CA58; CA58): 4 µg/mL (≈ 3.56 µM)
MIC K. pneumoniae CA64 (K. pneumoniae CA64; CA64): 16 µg/mL (≈ 14.2 µM)
MIC P. aeruginosa CCUG 59347 (P. aeruginosa CCUG 59347; CCUG 59347): 0.25 µg/mL (≈ 0.222 µM)
MIC A. baumannii NCTC 13424 (A. baumannii NCTC 13424; NCTC 13424): 0.06 µg/mL (≈ 0.0534 µM)
MIC A. baumannii ATCC BAA-747 ([1]; ATCC BAA-747): 0.03 µg/mL (≈ 0.0267 µM)
MIC K. pneumoniae ATCC 13822 (K. pneumoniae ATCC 13822; ATCC 13822): 0.25 µg/mL (≈ 0.222 µM)
tissue level at time at 4 h [2]: 203000 ng/g
Basophilic Tubules (cortex) (animals affected) ([3]; 25 mg/kg): 0/5
Mitotic Figures increased (animals affected) ([3]; 25 mg/kg): 0/5
Tubular Degeneration/necrosis (histopathology, animals affected) ([3]; 25 mg/kg): 0/5
Urine Albumin ([3]; 25 mg/kg): 4.78
Urine Cystatin C ([3]; 25 mg/kg): 31.04
Urine Kim-1 ([3]; 25 mg/kg): 27.61
Urine NGAL ([3]; 25 mg/kg): 0.00
Urine β-2 microglobulin ([3]; 25 mg/kg): 0.05
Basophilic Tubules (cortex) (animals affected) ([3]; 50 mg/kg): 2/5 (2 min)
Mitotic Figures increased (animals affected) ([3]; 50 mg/kg): 2/5 (2 min)
Tubular Degeneration/necrosis (histopathology, animals affected) ([3]; 50 mg/kg): 2/5 (2 min)
Urine Albumin ([3]; 50 mg/kg): 6.95
Urine Cystatin C ([3]; 50 mg/kg): 33.97
Urine Kim-1 ([3]; 50 mg/kg): 171.59
Urine NGAL ([3]; 50 mg/kg): 0.63
Urine β-2 microglobulin ([3]; 50 mg/kg): 13.22
Basophilic Tubules (cortex) (animals affected) ([3]; 75 mg/kg): 5/5 (2 min/
Mitotic Figures increased (animals affected) ([3]; 75 mg/kg): 5/5 (5 min)
Tubular Degeneration/necrosis (histopathology, animals affected) ([3]; 75 mg/kg): 5/5 (1 min/
Urine Albumin ([3]; 75 mg/kg): 10.93
Urine Cystatin C ([3]; 75 mg/kg): 81.44
Urine Kim-1 ([3]; 75 mg/kg): 1,203.41
Urine NGAL ([3]; 75 mg/kg): 3.71
Urine β-2 microglobulin ([3]; 75 mg/kg): 68.51
HK-2 rel to PMB (HK-2 cells): 21.8
